# Residues, ends and D or L forms follow the SMILES beside them.
# How the values were obtained:
# [1] = Determination of peptide hydrophobicity with RP-HPLC (adjusted retention time); format: physicochemical; details: RP-HPLC C18, linear 10–55% acetonitrile over 60 min, 0.1% TFA, 25.0 °C, UV 214 nm, triplicate; for tR’: Table 3, adjusted retention time as hydrophobicity
# Method: To determine peptide hydrophobicity, the Waters Alliance e2695 system with a Waters 2998 PDA Detector (software-Empower®3) was used. All analyses were carried out on a Phenomenex Luna C18(2) column (3.0 × 100 mm, 5 µm particle size, 100 Å pore size). The peptides were dissolved in water (0.1% TFA, v/v) to obtain a concentration of 1 g/L. UV detection at 214 nm was used, and aliquots (10 µL) were eluted with a linear 10–55% acetonitrile gradient in deionized water over 60 min at 25.0 ± 0.1 °C. The mobile phase flow rate was 0.5 mL/min. Both eluents contained 0.1% (v/v) of TFA. Each peptide sample was analyzed in triplicate.
# [2] = tested on: S. aureus ATCC 25923; format: cell-based, Staphylococcus aureus; details: ATCC 25923, 18 h
# Source text: (§1) The Acinetobacter baumannii ATCC BAA-1605, Candida albicans ATCC 10231, Enterococcus faecium ATCC 700221, Klebsiella aerogenes ATCC 13048 (previously known as Enterobacter aerogenes), Klebsiella pneumoniae ATCC 700603, Pseudomonas aeruginosa ATCC 9027, Staphylococcus aureus ATCC 25923 and MRSA ATCC 33591, were acquired from the American Type Culture Collection (ATCC). Before running the tests, beads with cryo-protected microorganisms were transferred into fresh MHB (BioMaxima, Lublin, Poland) for bacteria or RPMI-1640 for fungi and incubated for 24 h at 37 °C. Then, the culture was seeded on the Mueller-Hinton agar (MHA) plates (BioMaxima, Lublin, Poland) for bacteria or Sabouraud dextrose agar (SDA) plates (BioMaxima, Lublin, Poland) for fungi and incubated as just mentioned. Cell densities for all assays were adjusted spectrophotometrically (Multiskan™ GO Microplate Spectrophotometer, Thermo Fisher Scientific, Vantaa, Finland) at 600 nm for bacteria and at 530 nm for fungi.
# (§2) The MICs were determined by broth microdilution method according to the Clinical and Laboratory Standard Institute guidelines. For this purpose initial inoculums of bacteria (5 × 10^5 CFU/mL) in MHB (BioMaxima, Lublin, Poland) and fungi (2 × 10^3 CFU/mL) in RPMI-1640 with 2% D-glucose (Merck, Darmstadt, Germany) prepared with MOPS (pH 7.0 ± 0.1 at 25 °C; Merck, Darmstadt, Germany) were exposed to the ranging concentration of lipopeptides (0.5–256 µg/mL) and incubated at 37 °C for 18 h and 24 h respectively. The experiments were conducted on 96-well microtiter polystyrene plates (Kartell, Italy). The MIC was taken as the lowest peptide concentration at which a noticeable growth of microorganisms was inhibited. All experiments were conducted in triplicate.
# [3] = tested on: S. aureus ATCC 33591 (MRSA); format: cell-based, Staphylococcus aureus; details: ATCC 33591, 18 h
# Source text: as §1, §2
# [4] = tested on: P. aeruginosa ATCC 9027; format: cell-based, Pseudomonas aeruginosa; details: ATCC 9027, 18 h
# Source text: as §1, §2
# [5] = tested on: C. albicans ATCC 10231; format: cell-based, Candida albicans; details: ATCC 10231, 24 h, pH 7
# Source text: as §1, §2
# [6] = tested on: human red blood cells (hRBCs); format: cell-based; details: red cells of human, 1 h
# Method: The hemolysis assay was performed as described earlier according to the method of Avrahami and Shai. Fresh human red blood cells (hRBCs) with anticoagulant (EDTA) were rinsed three times with a PBS (Merck, Darmstadt, Germany) by centrifugation at 800× g for 10 min and resuspended in PBS. Lipopeptides were serially diluted on 96-well microtiter polystyrene plate and hRBCs were added to reach final volume of 100 µL. Peptide concentration ranged between 0.5 and 256 µg/mL and final hRBCs concentration was 4% (v/v). Controls for zero hemolysis (blank) and 100% hemolysis consisted of hRBCs suspended in PBS and 1% of Triton-X 100 (Merck, Darmstadt, Germany), respectively. The plate was incubated for 1 h at 37 °C and then centrifuged (800× g, 10 min, 4 °C). Subsequently, supernatant was […] to new microtiter plates and absorbance at 540 nm were measured. All experiments were conducted in triplicate. Protocol of the study received approval from the local Bioethics Committee at the Medical University of Gdańsk (NKBBN/262/2019).
# [7] = tested on: E. faecium ATCC 700221; format: cell-based, Enterococcus faecium; details: ATCC 700221, 18 h
# Source text: as §1, §2
# [8] = tested on: K. pneumoniae ATCC 700603; format: cell-based, Klebsiella pneumoniae; details: ATCC 700603, 18 h
# Source text: as §1, §2
# [9] = tested on: A. baumannii ATCC BAA-1605; format: cell-based, Acinetobacter baumannii; details: ATCC BAA-1605, 18 h
# Source text: as §1, §2
# [10] = tested on: K. aerogenes ATCC 13048; format: cell-based, Klebsiella aerogenes; details: ATCC 13048, 18 h
# Source text: as §1, §2
SMILES,tR’ [1],MIC SA [2],MIC S [3],MIC PA [4],MIC CA [5],HC50 [6],MIC E1 [7],MIC K [8],MIC A [9],MIC E2 [10],"Adjusted retention time ([1]; Table 2, nC = carbon atoms in fatty acid chain)"
"CCCCCCCCCCCCCC(=O)N[C@@H](Cc1c[nH]c2ccccc12)C(=O)N[C@@H](CCCNC(=N)N)C(=O)N[C@@H](CCCNC(=N)N)C(N)=O [compound 98, C14-WRR-NH2] (HELM PEPTIDE1{[CCCCCCCCCCCCCC(=O)[*:2]].W.R.R.[am]}$$$$V2.0)",47.11 min,4 µg/mL,2 µg/mL,8 µg/mL,4 µg/mL,36.91 (±0.89) µg/mL,8 µg/mL,64 µg/mL,128 µg/mL,32 µg/mL,
"CCCCCCCCCCCCCC(=O)N[C@H](C(=O)N[C@@H](CCCNC(=N)N)C(=O)N[C@@H](CCCNC(=N)N)C(N)=O)[C@@H](C)O [compound 90, C14-TRR-NH2] (HELM PEPTIDE1{[CCCCCCCCCCCCCC(=O)[*:2]].T.R.R.[am]}$$$$V2.0)",40.80 min,8 µg/mL,8 µg/mL,32 µg/mL,8 µg/mL,43.43 (±0.90) µg/mL,8 µg/mL,128 µg/mL,64 µg/mL,128 µg/mL,
"CCCCCCCCCCCC(=O)N[C@@H](CC(C)C)C(=O)N[C@@H](CCCNC(=N)N)C(=O)N[C@@H](CCCNC(=N)N)C(N)=O [compound 45, C12-LRR-NH2] (HELM PEPTIDE1{[CCCCCCCCCCCC(=O)[*:2]].L.R.R.[am]}$$$$V2.0)",39.82 min,8 µg/mL,16 µg/mL,16 µg/mL,16 µg/mL,112.81 (±1.39) µg/mL,16 µg/mL,256 µg/mL,64 µg/mL,256 µg/mL,39.821 min

# The next lines start with the values.
tR’ [1],MIC SA [2],MIC S [3],MIC PA [4],MIC CA [5],HC50 [6],MIC E1 [7],MIC K [8],MIC A [9],MIC E2 [10],"Adjusted retention time ([1]; Table 2, nC = carbon atoms in fatty acid chain)",SMILES
39.72 min,16 µg/mL,16 µg/mL,32 µg/mL,32 µg/mL,41.54 (±1.29) µg/mL,16 µg/mL,128 µg/mL,32 µg/mL,128 µg/mL,,"CCCCCCCCCCCCCC(=O)N[C@@H](CO)C(=O)N[C@@H](CCCNC(=N)N)C(=O)N[C@@H](CCCNC(=N)N)C(N)=O [compound 86, C14-SRR-NH2] (HELM PEPTIDE1{[CCCCCCCCCCCCCC(=O)[*:2]].S.R.R.[am]}$$$$V2.0)"
39.79 min,8 µg/mL,8 µg/mL,32 µg/mL,8 µg/mL,68.43 (±1.41) µg/mL,8 µg/mL,256 µg/mL,64 µg/mL,256 µg/mL,,"CCCCCCCCCCCCCC(=O)N[C@@H](CCCNC(=N)N)C(=O)N[C@@H](CCCNC(=N)N)C(N)=O [compound 4, C14-RR-NH2, reference compound] (HELM PEPTIDE1{[CCCCCCCCCCCCCC(=O)[*:2]].R.R.[am]}$$$$V2.0)"

# From paper PMC7024302, “Ultrashort Cationic Lipopeptides–Effect of N-Terminal Amino Acid and Fatty Acid Type on Antimicrobial Activity and Hemolysis” (Molecules, 2020)
